Read-outs that look alike come from different tables or passages of the source.
Target: mTOR/GbL/Raptor (mTORC1) (Homo sapiens, UniProt P42345)
Test: mTOR/GbL/Raptor (mTORC1) ELISA assay, phosphorylation of 4E-BP1
Assay type: biochemical
Details: 0.2 nM mTORC1, 10 μM ATP, 50 nM NHis-tagged 4E-BP1
Experimental: mTOR/GbL/Raptor (mTORC1) ELISA Assay
The measurement of mTORC1 enzyme activity was performed in an ELISA assay format following the phosphorylation of 4E-BP1 protein. All experiments were performed in the 384-well format. Generally, 0.5 μL DMSO containing varying concentrations of the test compound was mixed with 15 μL enzyme solution. Kinase reactions were initiated with the addition of 15 μL of substrates-containing solution. The assay conditions were as follows; 0.2 nM mTORC1, 10 μM ATP and 50 nM NHis-tagged 4E-BP1 in 20 mM Hepes, pH 7.2, 1 mM DTT, 50 mM NaCl, 10 mM MnCl2, 0.02 mg/mL BSA, 0.01% CHAPS, 50 mM β-glycerophosphate. Following an incubation of 120 minutes at ambient temperature, 20 μL of the reaction volume was transferred to a Ni-Chelate-coated 384-well plate. The binding step of the 4E-BP1 protein proceeded for 60 minutes, followed by washing 4 times each with 50 μL of Tris-buffered saline solution (TBS). Anti-phospho-4E-BP1 rabbit-IgG (20 μL, 1:5000) in 5% BSA-TBST (0.2% Tween-20 in TBS) was added and further incubated for 60 minutes. Incubation with a secondary HRP-tagged anti-IgG was similarly performed after washing off the primary antibody (4 washes of 50 μL). Following the final wash step with TBST, 20 μL of SuperSignal ELISA Femto (Pierce Biotechnology) was added and the luminescence measured using an EnVision plate reader.

[1] = read-out: Activity in mTOR/GbL/Raptor ELISA Assay
[2] = read-out: activity in mTOR/GbL/Raptor (mTORC1) ELISA assay, activity bands by Table 1 compound number

| SMILES | IC50 [1] [nM] | IC50 [2] [nM] |
| --- | --- | --- |
| O=C(c1ccc(C(O)(O)C(F)(F)F)cc1)N1CCOc2ccc(-c3ccc(-c4ncc[nH]4)cc3)cc2C1 [2,2,2-trifluoro-1-[4-({7-[4-(1H-imidazol-2-yl)phenyl]-2,3-dihydro-1,4-benzoxazepin-4(5H)-yl}carbonyl)phenyl]ethane-1,1-diol] | 3 |  |
| CCc1c(C(=O)N2CCOc3ccc(-c4ccc(NC(=O)N(C)C)cc4)cc3C2)ccc(S(C)(=O)=O)c1F [3-[4-(4-{[2-ethyl-3-fluoro-4-(methylsulfonyl)phenyl]carbonyl}-2,3,4,5-tetrahydro-1,4-benzoxazepin-7-yl)phenyl]-1,1-dimethylurea] | 14.4 |  |
| CCc1c(C(=O)N2CCOc3ccc(-c4ccc(C(=O)NC)c(F)c4)cc3C2)ccc(S(C)(=O)=O)c1F [4-(4-{[2-ethyl-3-fluoro-4-(methylsulfonyl)phenyl]carbonyl}-2,3,4,5-tetrahydro-1,4-benzoxazepin-7-yl)-2-fluoro-N-methylbenzamide] | 11.9 |  |
| Cc1nc2ccc(-c3ccc4c(c3)CN(C(=O)c3ccc5c(c3)CCS5(=O)=O)CCO4)cc2[nH]1 [4-[(1,1-dioxido-2,3-dihydro-1-benzothien-5-yl)carbonyl]-7-(2-methyl-1H-benzimidazol-6-yl)-2,3,4,5-tetrahydro-1,4-benzoxazepine] | 4.8 |  |
| Cc1nc2ccc(-c3ccc4c(c3)CN(C(=O)c3cc5nc(C)sc5n3C)CCO4)cc2[nH]1 [4-[(2,4-dimethyl-4H-pyrrolo[3,2-d][1,3]thiazol-5-yl)carbonyl]-7-(2-methyl-1H-benzimidazol-6-yl)-2,3,4,5-tetrahydro-1,4-benzoxazepine] | 17.2 |  |
| CCn1c(C(=O)N2CCOc3ccc(-c4ccc5nc(C)[nH]c5c4)cc3C2)c(Cl)c2ccccc21 [4-[(3-chloro-1-ethyl-1H-indol-2-yl)carbonyl]-7-(2-methyl-1H-benzimidazol-6-yl)-2,3,4,5-tetrahydro-1,4-benzoxazepine] | 9.5 |  |
| COc1ccc(OC)c(S(=O)(=O)c2ccc(C(=O)N3CCOc4ccc(-c5ccc6nc(C)[nH]c6c5)cc4C3)cc2)c1 [4-[(4-{[2,5-bis(methyloxy)phenyl]sulfonyl}phenyl)carbonyl]-7-(2-methyl-1H-benzimidazol-6-yl)-2,3,4,5-tetrahydro-1,4-benzoxazepine] | 3.2 |  |
| CCc1c(C(=O)N2CCOc3ccc(-c4ccc(-c5nc6ccc(C)cc6[nH]5)cc4)cc3C2)ccc(S(C)(=O)=O)c1F [4-{[2-ethyl-3-fluoro-4-(methylsulfonyl)phenyl]carbonyl}-7-[4-(6-methyl-1H-benzimidazol-2-yl)phenyl]-2,3,4,5-tetrahydro-1,4-benzoxazepine] | 6 |  |
| CC(C)NS(=O)(=O)c1ccc(C(=O)N2CCOc3ccc(-c4ccc5nc[nH]c5c4)cc3C2)c(Br)c1 [4-{[7-(1H-benzimidazol-6-yl)-2,3-dihydro-1,4-benzoxazepin-4(5H)-yl]carbonyl}-3-bromo-N-(1-methylethyl)benzenesulfonamide] | 5.6 |  |
| Nc1ccc(-c2ccc3c(c2)CN(C(=O)c2ccc(S(N)(=O)=O)cc2)CCO3)cn1 [4-{[7-(6-aminopyridin-3-yl)-2,3-dihydro-1,4-benzoxazepin-4(5H)-yl]carbonyl}benzenesulfonamide] | 6.6 |  |
| Cc1ccc(C(=O)N2CCOc3ccc(-c4ccc5nc[nH]c5c4)cc3C2)c(C)c1 [7-(1H-benzimidazol-6-yl)-4-[(2,4-dimethylphenyl)carbonyl]-2,3,4,5-tetrahydro-1,4-benzoxazepine] | 6.4 |  |
| O=C(c1ccc(-c2csnn2)cc1)N1CCOc2ccc(-c3ccc4cn[nH]c4c3)cc2C1 [7-(1H-indazol-6-yl)-4-{[4-(1,2,3-thiadiazol-4-yl)phenyl]carbonyl}-2,3,4,5-tetrahydro-1,4-benzoxazepine] | 6.3 |  |
| Cc1nc2ccc(-c3ccc4c(c3)CN(C(=O)c3ccc(S(=O)(=O)N5CCN(C)CC5)cc3)CCO4)cc2[nH]1 [7-(2-methyl-1H-benzimidazol-6-yl)-4-({4-[(4-methylpiperazin-1-yl)sulfonyl]phenyl}carbonyl)-2,3,4,5-tetrahydro-1,4-benzoxazepine] | 8.6 |  |
| Cc1nc2ccc(-c3ccc4c(c3)CN(C(=O)c3cc(S(=O)(=O)N5CCCC5)cn3C)CCO4)cc2[nH]1 [7-(2-methyl-1H-benzimidazol-6-yl)-4-{[1-methyl-4-(pyrrolidin-1-ylsulfonyl)-1H-pyrrol-2-yl]carbonyl}-2,3,4,5-tetrahydro-1,4-benzoxazepine] | 7.1 |  |
| CCS(=O)(=O)c1ccc(C(=O)N2CCOc3ccc(-c4ccc(N)nc4)cc3C2)c(C)c1F [Example 566, 5-(4-{[4-(ethylsulfonyl)-3-fluoro-2-methylphenyl]carbonyl}-2,3,4,5-tetrahydro-1,4-benzoxazepin-7-yl)pyridin-2-amine] |  | ≤ 10 |
| O=C(c1ccc(C(=O)C(F)(F)F)cc1)N1CCOc2ccc(-c3cccnc3)cc2C1 [Example 884, 2,2,2-trifluoro-1-{4-[(7-pyridin-3-yl-2,3-dihydro-1,4-benzoxazepin-4(5H)-yl)carbonyl]phenyl}ethanone] |  | 10 to 100 |
| COc1ccc(-c2ccc3c(c2)CN(C(=O)c2ccc(S(N)(=O)=O)cc2)CCO3)cn1 [Example 885, 4-({7-[6-(methyloxy)pyridin-3-yl]-2,3-dihydro-1,4-benzoxazepin-4(5H)-yl}carbonyl)benzenesulfonamide] |  | 10 to 100 |
| COc1ccc(-c2ccc3c(c2)CN(C(=O)c2ccc(S(C)(=O)=O)cc2)CCO3)cn1 [Example 886, 7-[6-(methyloxy)pyridin-3-yl]-4-{[4-(methylsulfonyl)phenyl]carbonyl}-2,3,4,5-tetrahydro-1,4-benzoxazepine] |  | 100 to 500 |
| COc1ccc(-c2ccc3c(c2)CN(C(=O)c2ccc(C(=O)C(F)(F)F)cc2)CCO3)cn1 [Example 887, 2,2,2-trifluoro-1-[4-({7-[6-(methyloxy)pyridin-3-yl]-2,3-dihydro-1,4-benzoxazepin-4(5H)-yl}carbonyl)phenyl]ethanone] |  | 10 to 100 |
| CS(=O)(=O)c1ccc(C(=O)N2CCOc3ccc(-c4ccc(N)nc4)cc3C2)cc1 [Example 888, 5-(4-{[4-(methylsulfonyl)phenyl]carbonyl}-2,3,4,5-tetrahydro-1,4-benzoxazepin-7-yl)pyridin-2-amine] |  | 10 to 100 |
| CCc1c(C(=O)N2CCOc3ccc(-c4ccc(C(=O)NCC5CNC5)cc4)cc3C2)ccc(S(C)(=O)=O)c1F [N-(azetidin-3-ylmethyl)-4-(4-{[2-ethyl-3-fluoro-4-(methylsulfonyl)phenyl]carbonyl}-2,3,4,5-tetrahydro-1,4-benzoxazepin-7-yl)benzamide] | 9.9 |  |
| CCc1c(C(=O)N2CCOc3ccc(-c4cnc(NCCNC)s4)cc3C2)ccc(S(C)(=O)=O)c1F [N-[5-(4-{[2-ethyl-3-fluoro-4-(methylsulfonyl)phenyl]carbonyl}-2,3,4,5-tetrahydro-1,4-benzoxazepin-7-yl)-1,3-thiazol-2-yl]-N′-methylethane-1,2-diamine] | 5.3 |  |
